Read-outs that look alike come from different tables or passages of the source.
Tests used:
SARS-CoV-2 = test: Viral load quantitative real-time PCR in SARS-CoV-2 infected NHBE cells under drug treatment; format: cell-based; details: for reduction of SARS-CoV-2 viral load: 5 days of treatment, viral RNA vs DMSO vehicle, n=3
[1] = system: SARS-CoV-2 infected primary lung cells; format: cell-based, human
[2] = system: SARS-CoV-2 infected lung cells; test: Cell viability (Hoechst staining) of SARS-CoV-2 infected lung cells exposed to drugs; format: cell-based, human; details: 5 days exposure
Method: Drug Treatments: Approximately 5×10^5 NHBE cells were infected with SARS-CoV-2 at a MOI of 2 in bronchial epithelial growth media. […] After 24 h, the media was collected and changed to bronchial epithelial growth media with the respective drug at the concentration listed above. Then, every 48 hours media was collected and replenished. The media was stored at −80° C. immediately after removal. Culture viability was assessed at the end the experiment using Hoechst staining.

[3] = system: SARS-CoV-2 infected lung cells; format: cell-based; details: 5 days exposure, vs DMSO-treated and mock-infected controls
COVID-19 patients [4] = test: Observational comparison of representation of metabolic regulator users in hospital records versus COVID-19 cases (chi-squared / IRR, Table 3); format: in vivo, human; details: for representation among COVID-19 severity indicators (hospitalization, ICU admission, deaths): chi-squared test vs general hospital medical records
COVID-19 patients [5] = details: 21-day hospitalization, vs PSM-matched controls
Method: In clinical data, continuous variables with non-normal distributions were expressed as median [IQR]. Categorical variables were expressed as number and percentage (%). […] Comparisons between groups were performed with Mann-Whitney U test for nonparametric variables and Fisher's exact test or χ2 test for categorical variables. Person-time data (Incidence) of two groups with different exposures may be expressed as a difference between incidence rates or as a ratio of incidence rates (IRRs). The IRRs of endpoint outcomes were calculated to estimate the incidence difference in absolute change in the incidence of two comparison groups. The cumulative rates of death were compared using the Kaplan-Meier curves. Dynamic changes of inflammatory factors tracking from day 0 to day 28 after admission were depicted using the Lowess model. A two-side a less than 0.05 was considered to define statistical significance. Data were analyzed in R-3.6.3 (R Foundation for Statistical Computing, Vienna, Austria) and SPSS Statistics (version 23.0, IBM, Armonk, N.Y., USA).
To study the effects of metabolic regulators on COVID-19 progression the dynamic changes in circulating C-reactive protein (CRP), neutrophils, and lymphocytes markers of SARS-CoV-2 induced immunoinflammatory response were analyzed.

COVID-19 patients [6] = test: Secondary outcomes and organ failure, incidence rate ratios and Cox hazard ratios (Table 4); format: in vivo, human
Excerpt: Any death that occurred was documented.

COVID-19 patients [7] = test: Retrospective cohort of hospitalized COVID-19 patients taking metabolic regulators, outcomes before PSM (Table 2); format: in vivo, human; details: users before PSM
Method: Israeli Study Design and Participants: A retrospective, multi-center study was conducted in Hadassah and Ichilov medical centers. A total of 20,153 participants were diagnosed positive for SARS-COV-2 following WHO interim guidance (World Health Organization, 2020). Only patients hospitalized and diagnosed with COVID-19 were included. Participants with incomplete electronic medical records, aged less than 18, with pregnancy or severe medical conditions, including acute lethal organ injury (i.e., acute coronary syndrome, acute stroke, and severe acute pancreatitis) were excluded. The flowchart for patient inclusion is illustrated in FIG. 4J. Participants were admitted between Mar. 1, 2020, and Aug. 31, 2020 to either the Hadassah Medical Center in Jerusalem or the Tel Aviv Sourasky Medical Center. The final date of the follow up was Sep. 28, 2020. The study protocols were approved by the institutional ethics committee. Patient informed consent was waived by each ethics committee. Demographic and clinical characteristics, vital signs, laboratory tests, radiological reports, therapeutic interventions, and outcome data were extracted from electronic medical records using a standardized data collection. The laboratory data included a routine blood test, serum biochemical markers reflecting liver injury, kidney injury, and cardiac injury, lipid profile, IL-6, CRP, procalcitonin, and D-dimer were collected during hospitalization. In-hospital medication and life support intervention included the classification of the drugs, the dosage, the course of treatment, and using respiratory support were also extracted from medical records.

COVID-19 patients [8] = test: Propensity score-matched analysis of hospitalized COVID-19 patients, outcomes after PSM (Table 5); format: in vivo, human
[9] = physiological concentrations (Cmax): 20 μM rosiglitazone, 5 μM empagliflozin, 1 mM metformin
[10] = adjusted hazard ratio, mixed-effect Cox model, treatment versus non-treatment group
[11] = incidence rate in treatment group (first figure of 'x versus y')
[12] = incidence rate ratio, treatment versus non-treatment group
[13] = vs PSM-matched non-treatment group
[14] = vs share in 249,939 patient records 2015-2020

CN(CCOc1ccc(CC2SC(=O)NC2=O)cc1)c1ccccn1 (stereo not shown) [Rosiglitazone]
effect on SARS-CoV-2 infected primary cells (FIG. 4C-G) (SARS-CoV-2): no effect

Clc1ccc(C(OCCN2CCCCC2)c2ccccc2)cc1 (stereo not shown) [cloperastine]
glycolytic index / increase in glycolysis ([1]; Cmax concentration, infected primary cells): did not result in a reduction of lipid content or change in the glycolytic index
cell viability [2]: without affecting cell viability
phospholipid accumulation / lipid content [3]: did not result in a reduction of lipid content
reduction of SARS-CoV-2 viral load (SARS-CoV-2; 10 μM): 3 fold

CC(C)(Oc1ccc(C2CC2(Cl)Cl)cc1)C(=O)O (stereo not shown) [ciprofibrate]
representation among COVID-19 severity indicators (hospitalization, ICU admission, deaths) (COVID-19 patients [4]): underrepresented in ICU admissions and deaths

OC[C@H]1O[C@@H](c2ccc(Cl)c(Cc3ccc(O[C@H]4CCOC4)cc3)c2)[C@H](O)[C@@H](O)[C@@H]1O [empagliflozin]
effect on SARS-CoV-2 infected primary cells (FIG. 4C-G) (SARS-CoV-2; [9]): no effect

CN(C)C(=N)N=C(N)N [metformin]
circulating CRP levels (inflammation) (COVID-19 patients [5]): no significant differences
lymphocyte counts (COVID-19 patients [5]): lower lymphocyte count during the recovery period
neutrophil counts (COVID-19 patients [5]): lower initial neutrophil counts but relativity similar response to their PSM-matched controls
aHR, ICU admission (COVID-19 patients [6]; [10]): 1.1
aHR, acute cardiac injury (COVID-19 patients [6]; [10]): 1.1
aHR, acute kidney injury (COVID-19 patients [6]; [10]): 0.48
aHR, acute liver injury (COVID-19 patients [6]; [10]): 0.76
aHR, invasive mechanical ventilation (COVID-19 patients [6]; [10]): 1.3
aHR, septic shock (COVID-19 patients [6]; [10]): 1.6
IR, ICU admission (COVID-19 patients [6]; [11]): 0.37 versus 0.31 100-person-day
IR, acute cardiac injury (COVID-19 patients [6]; [11]): 0.25 versus 0.36 100-person-day
IR, acute kidney injury (COVID-19 patients [6]; [11]): 0.18 versus 0.37 100-person-day
IR, acute liver injury (COVID-19 patients [6]; [11]): 0.05 versus 0.11 100-person-day
IR, septic shock (COVID-19 patients [6]; [11]): 0.16 versus 0.12 100-person-day
IR, invasive mechanical ventilation (COVID-19 patients [6]; incidence rate in treatment group (first figure of 'x versus y'; second is the non-treatment group)): 0.15 versus 0.12 100-person-day
IRR, ICU admission (COVID-19 patients [6]; [12]): 1.2
IRR, acute cardiac injury (COVID-19 patients [6]; [12]): 0.69
IRR, acute kidney injury (COVID-19 patients [6]; [12]): 0.47
IRR, acute liver injury (COVID-19 patients [6]; [12]): 0.43
IRR, invasive mechanical ventilation (COVID-19 patients [6]; [12]): 1.3
IRR, septic shock (COVID-19 patients [6]; [12]): 1.3
Follow-up days, median (COVID-19 patients [7]): 5.0 days
High Flow Oxygen, % (COVID-19 patients [7]): (19%)
ICU admission, % (COVID-19 patients [7]): (30.7%)
Mechanically Ventilated/ECMO, % (COVID-19 patients [7]): (12.44%)
Non-invasive positive pressure ventilation, % (COVID-19 patients [7]): (7.3%)
Oxygen Supplementation, % (COVID-19 patients [7]): (38%)
Follow-up days, median (IQR) (COVID-19 patients [8]; median, drug users after PSM): 4.8 days
High Flow Oxygen, % (COVID-19 patients [8]; share of drug users after PSM): (15.6%)
ICU admission, % (COVID-19 patients [8]; share of drug users after PSM): (16.3%)
Mechanically Ventilated/ECMO, % (COVID-19 patients [8]; share of drug users after PSM): (10.4%)
Non-invasive positive pressure ventilation, % (COVID-19 patients [8]; share of drug users after PSM): (2.2%)
Oxygen Supplementation, % (COVID-19 patients [8]; share of drug users after PSM): (42.2%)
ICU admission rates (COVID-19 patients [8]; [13]): higher ICU admission rate and respiratory interventions
length of hospitalization (COVID-19 patients [8]; [13]): longer hospitalizations
mortality rates (COVID-19 patients [8]; [13]): higher mortality rates
respiratory intervention rates (COVID-19 patients [8]; [13]): higher ICU admission rate and respiratory interventions
effect on SARS-CoV-2 infected primary cells (FIG. 4C-G) (SARS-CoV-2; [9]): no effect
representation among COVID-19 severity indicators (hospitalization, ICU admission, deaths) (COVID-19 patients [4]): significant over-representation
COVID-19 Deceased, number of patients taking the drug (COVID-19 patients [4]; of 100 COVID-19 deceased): 13
COVID-19 Deceased, share of patients taking the drug (COVID-19 patients [4]; of 100 COVID-19 deceased): 13.00%
COVID-19 ICU, number of patients taking the drug (COVID-19 patients [4]; of 312 COVID-19 ICU patients): 42
COVID-19 ICU, share of patients taking the drug (COVID-19 patients [4]; of 312 COVID-19 ICU patients): 13.46%
COVID-19 Hospitalization, share of patients taking the drug (COVID-19 patients [4]; of 1,531 hospitalized COVID-19 cases): 8.82%
COVID-19 Hospitalization, number of patients taking the drug (COVID-19 patients [4]; of 1,531 hospitalized COVID-19 cases, adults over 40): 135
IRR, COVID-19 Deceased (COVID-19 patients [4]; [14]): 1.85
IRR, COVID-19 Hospitalization (COVID-19 patients [4]; [14]): 1.26

CCCc1nc2c(C)cc(-c3nc4ccccc4n3C)cc2n1Cc1ccc(-c2ccccc2C(=O)O)cc1 [telmisartan]
representation among COVID-19 severity indicators (hospitalization, ICU admission, deaths) (COVID-19 patients [4]): over-represented in ICU admission and deaths

CC(C)OC(=O)C(C)(C)Oc1ccc(C(=O)c2ccc(Cl)cc2)cc1 [fenofibrate]
reduction of lactate to glucose ratio ([1]; SARS-CoV-2 infected primary lung cells, n=3, p<0.01): 60%
cell viability [2]: without affecting cell viability
reduction of SARS-CoV-2 viral load (SARS-CoV-2; 20 μM fenofibrate): 2 logs

From patent publication US20230190745A1, “USE OF METABOLIC REGULATORS FOR THE TREATMENT OF COVID-19” (YISSUM RESEARCH DEVELOPMENT COMPANY OF THE HEBREW …, priority 2020, published 2023)
